Paper PMC5676521 (Chemical Science, 2017)

Biological target: PRMT7 (TbPRMT7) (Trypanosoma brucei, UniProt Q582G4)
Sequence (Q582G4 whole entry): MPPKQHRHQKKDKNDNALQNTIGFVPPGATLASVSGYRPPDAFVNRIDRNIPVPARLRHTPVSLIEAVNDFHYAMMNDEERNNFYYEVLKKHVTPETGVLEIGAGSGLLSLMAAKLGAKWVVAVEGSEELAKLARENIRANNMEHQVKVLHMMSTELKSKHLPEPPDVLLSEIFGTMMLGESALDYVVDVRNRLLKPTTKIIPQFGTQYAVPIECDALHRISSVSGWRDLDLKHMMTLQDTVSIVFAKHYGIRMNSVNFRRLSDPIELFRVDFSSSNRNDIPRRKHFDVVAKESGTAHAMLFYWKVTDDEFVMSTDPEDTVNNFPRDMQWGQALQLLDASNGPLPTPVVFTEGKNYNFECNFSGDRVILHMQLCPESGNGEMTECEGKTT

## C[S+](CC[C@H](N)C(=O)O)C[C@H]1O[C@@H](n2nnc3c(N)ncnc32)[C@H](O)[C@@H]1O (stereo partly shown) [8-aza-SAM]
  Km: 15.3 ± 0.7 µM
